ChEMBL document CHEMBL2074083, “Functional characterization of SLCO1B1 (OATP-C) variants, SLCO1B1*5, SLCO1B1*15 and SLCO1B1*15+C1007G, by using transient expression systems of HeLa and HEK293 cells” (Pharmacogenet Genomics, 2005)

What was measured:
Assay type in all cases: functional, cell-based
[1] = target: T1, Solute carrier organic anion transporter family member 1B1 (Homo sapiens, UniProt Q9Y6L6); assay: (§1) TP_TRANSPORTER: uptake in OATP1B1-expressing HEK293 cells; details: hek293
T1 sequence (Q9Y6L6 whole entry): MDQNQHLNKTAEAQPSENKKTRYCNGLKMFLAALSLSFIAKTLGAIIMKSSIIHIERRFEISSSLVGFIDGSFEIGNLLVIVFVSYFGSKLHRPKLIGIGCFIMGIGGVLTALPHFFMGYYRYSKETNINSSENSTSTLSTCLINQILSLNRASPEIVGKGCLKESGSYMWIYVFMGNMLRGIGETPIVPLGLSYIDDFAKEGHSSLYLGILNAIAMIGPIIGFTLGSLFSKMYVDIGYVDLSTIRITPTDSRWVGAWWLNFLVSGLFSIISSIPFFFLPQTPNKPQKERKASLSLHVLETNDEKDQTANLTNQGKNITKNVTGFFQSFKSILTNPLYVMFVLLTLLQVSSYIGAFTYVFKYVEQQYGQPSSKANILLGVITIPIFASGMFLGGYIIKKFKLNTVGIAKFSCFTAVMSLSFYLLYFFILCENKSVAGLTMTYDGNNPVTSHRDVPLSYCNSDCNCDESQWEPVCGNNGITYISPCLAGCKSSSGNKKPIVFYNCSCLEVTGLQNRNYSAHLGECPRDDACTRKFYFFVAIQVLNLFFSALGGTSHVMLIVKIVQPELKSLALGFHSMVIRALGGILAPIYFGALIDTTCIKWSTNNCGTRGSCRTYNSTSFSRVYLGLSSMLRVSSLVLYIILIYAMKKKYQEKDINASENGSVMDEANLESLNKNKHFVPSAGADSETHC

[2] = target: T2, OATP1B1 (Homo sapiens, UniProt Q9Y6L6); assay: as §1; details: HEK293 cells that express OATP1B1
T2 sequence (Q9Y6L6 whole entry): T1 sequence (Q9Y6L6 whole entry)

[3] = substrate: CC[C@H](C)C(=O)O[C@H]1C[C@H](O)C=C2C=C[C@H](C)[C@H](CC[C@@H](O)C[C@@H](O)CC(=O)O)[C@H]21; assay: as §1

COCc1c(C(C)C)nc(C(C)C)c(/C=C/[C@@H](O)C[C@@H](O)CC(=O)O)c1-c1ccc(F)cc1 [CERIVASTATIN]
Activity [1]: substrate [(+)]

CC(C)c1c(C(=O)Nc2ccccc2)c(-c2ccccc2)c(-c2ccc(F)cc2)n1CC[C@@H](O)C[C@@H](O)CC(=O)O [ATORVASTATIN]
Km [2]: 12.4 µM

B1: Solute carrier organic anion transporter family member 1B1 (Homo sapiens) (protein)
chain: T1 sequence (Q9Y6L6 whole entry)
Km [3]: 85.7 µM
